Measurements taken from patent publication US9776995B2, “Bicyclic sulfonamide compounds as sodium channel inhibitors” (AMGEN INC., priority 2013, dated 2017).
Values belong to the compound of their own block, whether it stands above or below them.

Molecular target: Nav 1.7 (Homo sapiens (Human), UniProt Q15858)
Experiment: Nav 1.7 in vitro PX assay (PatchXpress whole cell voltage clamp);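 further: holding potential set for 20 to 50% inactivation, sodium current evoked by a 20 ms step to −10 mV, peak current inhibition read after compound exposure, 3–5 cells per concentration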
Assay type: cell-based
[1] = HEK 293 cells stably transfected with human Nav1.7, PatchXpress, partially inactivated state
[2] = in-vitro Nav 1.7 PX (PatchXpress)

Chain of Nav 1.7 (Q15858 whole entry): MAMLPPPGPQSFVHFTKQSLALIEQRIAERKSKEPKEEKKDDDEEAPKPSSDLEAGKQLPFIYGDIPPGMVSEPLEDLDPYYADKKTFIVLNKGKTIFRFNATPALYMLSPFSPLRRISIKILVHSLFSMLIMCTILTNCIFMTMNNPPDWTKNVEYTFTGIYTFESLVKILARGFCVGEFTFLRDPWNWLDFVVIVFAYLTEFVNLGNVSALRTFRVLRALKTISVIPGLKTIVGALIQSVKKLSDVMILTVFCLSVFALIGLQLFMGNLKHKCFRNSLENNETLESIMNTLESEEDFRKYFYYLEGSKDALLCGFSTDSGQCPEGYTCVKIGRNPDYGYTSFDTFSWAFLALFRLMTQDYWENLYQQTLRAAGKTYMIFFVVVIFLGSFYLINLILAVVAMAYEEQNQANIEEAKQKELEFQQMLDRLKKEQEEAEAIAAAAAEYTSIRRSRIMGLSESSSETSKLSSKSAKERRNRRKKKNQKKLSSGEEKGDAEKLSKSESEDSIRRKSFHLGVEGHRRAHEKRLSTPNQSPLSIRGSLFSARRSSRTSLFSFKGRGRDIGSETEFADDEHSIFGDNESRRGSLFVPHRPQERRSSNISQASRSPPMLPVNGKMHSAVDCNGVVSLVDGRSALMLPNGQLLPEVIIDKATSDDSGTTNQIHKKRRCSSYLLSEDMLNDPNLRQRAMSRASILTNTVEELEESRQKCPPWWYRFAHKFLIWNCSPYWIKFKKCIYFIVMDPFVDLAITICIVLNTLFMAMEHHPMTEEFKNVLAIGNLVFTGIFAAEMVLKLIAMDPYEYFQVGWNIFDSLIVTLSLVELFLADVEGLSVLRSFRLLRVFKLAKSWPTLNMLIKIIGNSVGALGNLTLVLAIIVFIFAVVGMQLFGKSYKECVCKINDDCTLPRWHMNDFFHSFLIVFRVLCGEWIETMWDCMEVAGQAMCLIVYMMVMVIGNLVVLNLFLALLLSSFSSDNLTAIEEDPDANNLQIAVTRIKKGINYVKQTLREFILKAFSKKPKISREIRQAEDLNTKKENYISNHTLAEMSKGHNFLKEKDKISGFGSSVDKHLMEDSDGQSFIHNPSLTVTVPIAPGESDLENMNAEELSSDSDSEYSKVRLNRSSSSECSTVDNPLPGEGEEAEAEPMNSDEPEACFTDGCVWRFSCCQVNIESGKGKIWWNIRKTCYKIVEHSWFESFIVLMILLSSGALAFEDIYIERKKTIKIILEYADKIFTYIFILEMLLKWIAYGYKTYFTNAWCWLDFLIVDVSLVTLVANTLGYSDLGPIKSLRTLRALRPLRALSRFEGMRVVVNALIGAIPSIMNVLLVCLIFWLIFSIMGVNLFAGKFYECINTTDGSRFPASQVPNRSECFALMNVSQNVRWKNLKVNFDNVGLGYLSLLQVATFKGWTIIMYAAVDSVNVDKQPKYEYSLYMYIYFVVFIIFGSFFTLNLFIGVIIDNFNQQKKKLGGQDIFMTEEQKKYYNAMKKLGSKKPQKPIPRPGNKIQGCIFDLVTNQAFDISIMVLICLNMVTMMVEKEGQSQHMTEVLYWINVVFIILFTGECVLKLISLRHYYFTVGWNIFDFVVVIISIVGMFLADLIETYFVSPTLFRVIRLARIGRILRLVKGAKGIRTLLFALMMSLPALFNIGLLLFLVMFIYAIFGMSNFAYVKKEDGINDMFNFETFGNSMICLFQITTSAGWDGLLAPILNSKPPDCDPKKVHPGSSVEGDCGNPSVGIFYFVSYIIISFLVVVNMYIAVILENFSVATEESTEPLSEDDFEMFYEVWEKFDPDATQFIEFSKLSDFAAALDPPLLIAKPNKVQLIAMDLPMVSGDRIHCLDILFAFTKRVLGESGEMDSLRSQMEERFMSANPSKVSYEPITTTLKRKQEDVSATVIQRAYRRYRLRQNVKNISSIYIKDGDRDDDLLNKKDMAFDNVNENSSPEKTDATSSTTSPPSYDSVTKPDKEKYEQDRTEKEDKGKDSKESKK

SMILES: CCc1nnc2cc(S(=O)(=O)Nc3ccon3)ccc2c1-c1cc(Cl)c(-c2cccc(F)c2)cc1OC (atropisomer, axis not shown; (P)) [Example 444, (P)-4-(2-chloro-3′-fluoro-5-methoxy-[1,1′-biphenyl]-4-yl)-3-ethyl-N-(isoxazol-3-yl)cinnoline-7-sulfonamide]
IC50 [1]: 1160 nM

SMILES: COc1cc(F)cc(-c2cc(OC)c(-c3nccc4cc(S(=O)(=O)Nc5ccon5)ccc34)cc2F)c1 [Example 305, 1-(2,3′-difluoro-5,5′-dimethoxy-4-biphenylyl)-N-3-isoxazolyl-6-isoquinolinesulfonamide]
IC50 [2]: 40 nM

SMILES: COc1cc(-c2cc(F)cnc2OC)c(C)cc1-c1nccc2cc(S(=O)(=O)Nc3ccon3)ccc12 [Example 279, 1-(4-(5-fluoro-2-methoxy-3-pyridinyl)-2-methoxy-5-methylphenyl)-N-3-isoxazolyl-6-isoquinolinesulfonamide]
IC50 [2]: 63 nM

SMILES: COc1cc(-c2ccc(Cl)c(C)c2)c(Cl)cc1-c1nncc2cc(S(=O)(=O)Nc3ccon3)ccc12 [Example 245, 1-(2,4′-dichloro-5-methoxy-3′-methyl-4-biphenylyl)-N-3-isoxazolyl-6-phthalazinesulfonamide]
IC50 (PatchXpress (PX)): 15.4 nM

SMILES: COc1cc(-c2cccc(F)c2)c(Cl)cc1-c1c(C)nnc2cc(S(=O)(=O)Nc3ccon3)ccc12 (atropisomer, axis not shown; (M)) [Example 441, (M)-4-(2-chloro-3′-fluoro-5-methoxy-[1,1′-biphenyl]-4-yl)-N-(isoxazol-3-yl)-3-methylcinnoline-7-sulfonamide]
IC50 [1]: 52 nM

SMILES: COc1cc(-c2cccc(F)c2)c(Cl)cc1-c1ncnc2cc(S(=O)(=O)Nc3ccsn3)ccc12 [Example 361, 4-(2-chloro-3′-fluoro-5-methoxy-[1,1′-biphenyl]-4-yl)-N-(isothiazol-3-yl)quinazoline-7-sulfonamide]
IC50 [1]: 369 nM

SMILES: COc1cc(-c2cccc(F)c2)c(Cl)cc1-c1nccc2cc(S(=O)(=O)Nc3ncc(F)cn3)ccc12 [Example 294, 1-(2-chloro-3′-fluoro-5-methoxy-4-biphenylyl)-N-(5-fluoro-2-pyrimidinyl)-6-isoquinolinesulfonamide]
IC50 [2]: 256 nM

SMILES: COc1cc(-c2cccc(F)c2)c(Cl)cc1-c1nccc2cc(S(=O)(=O)Nc3cscn3)ccc12 [Example 54, 1-(2-CHLORO-3′-FLUORO-5-METHOXY-[1,1′-BIPHENYL]-4-YL)-N-(THIAZOL-4-YL)ISOQUINOLINE-6-SULFONAMIDE]
IC50 (PatchXpress (PX)): 493 nM

SMILES: COc1cc(-c2cc(F)cc(Cl)c2)c(F)cc1-c1c(=O)[nH]cc2cc(S(=O)(=O)Nc3ccon3)ccc12 [Example 550, 4-(3′-chloro-2,5′-difluoro-5-methoxy-4-biphenylyl)-N-3-isoxazolyl-3-oxo-2,3-dihydro-7-isoquinolinesulfonamide]
IC50 [1]: 6 nM

SMILES: COc1cc(-c2cc(F)cc(F)c2)c(C)cc1-c1nccc2cc(S(=O)(=O)Nc3ccon3)ccc12 [Example 272, 1-(3′,5′-difluoro-5-methoxy-2-methyl-4-biphenylyl)-N-3-isoxazolyl-6-isoquinolinesulfonamide]
IC50 (PatchXpress (PX)): 31.9 nM

SMILES: COc1cc(-c2ccc(Cl)c(C)c2)c(F)cc1-c1cn(C)c(=O)c2cc(S(=O)(=O)Nc3ccon3)ccc12 [Example 454, 4-(4′-CHLORO-2-FLUORO-5-METHOXY-3′-METHYL-[1,1′-BIPHENYL]-4-YL)-N-(ISOXAZOL-3-YL)-2-METHYL-1-OXO-1,2-DIHYDROISOQUINOLINE-7-SULFONAMIDE]
IC50 [1]: 51 nM

SMILES: COc1cc(C(F)(F)F)c(C2CC2)cc1-c1nccc2cc(S(=O)(=O)Nc3ccon3)ccc12 [Example 258, 1-(5-cyclopropyl-2-methoxy-4-(trifluoromethyl)phenyl)-N-3-isoxazolyl-6-isoquinolinesulfonamide]
IC50 (PatchXpress (PX)): 543 nM

SMILES: COc1cc(-c2cc(F)cc(Cl)c2)c(F)cc1-c1cn(C)c(=O)c2cc(S(=O)(=O)Nc3ccon3)ccc12 [Example 453, 4-(3′-CHLORO-2,5′-DIFLUORO-5-METHOXY-[1,1′-BIPHENYL]-4-YL)-N-(ISOXAZOL-3-YL)-2-METHYL-1-OXO-1,2-DIHYDROISOQUINOLINE-7-SULFONAMIDE]
IC50 [1]: 48 nM

SMILES: COc1cc(C(F)F)c(C)cc1-c1nccc2cc(S(=O)(=O)Nc3ccon3)ccc12 [Example 250, 1-(4-(difluoromethyl)-2-methoxy-5-methylphenyl)-N-3-isoxazolyl-6-isoquinolinesulfonamide]
IC50 (PatchXpress (PX)): 728 nM

SMILES: COc1cc(F)c(-c2ccccn2)cc1-c1nccc2cc(S(=O)(=O)Nc3ccon3)ccc12 [Example 399]
IC50 [1]: 28400 nM

SMILES: CCc1nnc2cc(S(=O)(=O)Nc3ccon3)ccc2c1-c1cc(Cl)c(-c2cccc(F)c2)cc1OC (atropisomer, axis not shown; (M)) [Example 443, (M)-4-(2-chloro-3′-fluoro-5-methoxy-[1,1′-biphenyl]-4-yl)-3-ethyl-N-(isoxazol-3-yl)cinnoline-7-sulfonamide]
IC50 [1]: 87 nM

The remaining lines, values ahead:

IC50 [2]: 34 nM
SMILES: COc1cc(-c2ccc(F)c(C3CC3)c2)c(C)cc1-c1ncnc2cc(S(=O)(=O)Nc3ccon3)ccc12 [Example 63, 4-(3′-CYCLOPROPYL-4′-FLUORO-5-METHOXY-2-METHYL-[1,1′-BIPHENYL]-4-YL)-N-(ISOXAZOL-3-YL)QUINAZOLINE-7-SULFONAMIDE]

IC50 [1]: 610 nM
SMILES: CCOc1ccc(-c2cc(OC)c(-c3ncnc4cc(S(=O)(=O)Nc5ccon5)ccc34)cc2F)cc1C [Example 535, 4-(4′-ethoxy-2-fluoro-5-methoxy-3′-methyl-4-biphenylyl)-N-3-isoxazolyl-7-quinazolinesulfonamide]

IC50 (PatchXpress (PX)): 25.2 nM
SMILES: COc1cc(-c2ccc(F)c(Cl)c2)c(C)cc1-c1ncnc2cc(S(=O)(=O)Nc3ccon3)ccc12 [Example 269, 4-(3′-chloro-4′-fluoro-5-methoxy-2-methyl-4-biphenylyl)-N-3-isoxazolyl-7-quinazolinesulfonamide]

IC50 [1]: 113 nM
SMILES: COc1cc(-c2cc(C)ccc2F)c(C)cc1-c1ncnc2cc(S(=O)(=O)Nc3ccon3)ccc12 [Example 556, 4-(2′-fluoro-5-methoxy-2,5′-dimethyl-4-biphenylyl)-N-3-isoxazolyl-7-quinazolinesulfonamide]

IC50 [2]: 45 nM
SMILES: COc1cc(-c2cc(F)cc(Cl)c2)c(Cl)cc1-c1ncnc2cc(S(=O)(=O)Nc3ccon3)ccc12 [Example 310, 4-(2,3′-dichloro-5′-fluoro-5-methoxy-4-biphenylyl)-N-3-isoxazolyl-7-quinazolinesulfonamide]

IC50 [2]: 610 nM
SMILES: CCOc1ccc(-c2cc(OC)c(-c3ncnc4cc(S(=O)(=O)Nc5ccon5)ccc34)cc2F)cc1C [Example 304, 4-(4′-ethoxy-2-fluoro-5-methoxy-3′-methyl-4-biphenylyl)-N-3-isoxazolyl-7-quinazolinesulfonamide]

IC50 [2]: 59 nM
SMILES: COc1cc(-c2cc(C)c(Cl)c(F)c2)c(F)cc1-c1ncnc2cc(S(=O)(=O)Nc3ccon3)ccc12 [Example 295, 4-(4′-chloro-2,3′-difluoro-5-methoxy-5′-methyl-4-biphenylyl)-N-3-isoxazolyl-7-quinazolinesulfonamide]

IC50 (PatchXpress (PX)): 28.7 nM
SMILES: COc1cc(-c2ccc(C)c(Cl)c2)c(C)cc1-c1ncnc2cc(S(=O)(=O)Nc3ccon3)ccc12 [Example 267, 4-(3′-chloro-5-methoxy-2,4′-dimethyl-4-biphenylyl)-N-3-isoxazolyl-7-quinazolinesulfonamide]
